Source: patent publication US7141573B2, “Polypharmacophoric agents” (Molecular Insight Pharmaceuticals, Inc., priority 2000, dated 2006)
Read-outs that look alike come from different tables or passages of the source.

How the values were obtained:
hNET [1] = target: T1, hNET (Homo sapiens, UniProt P23975); assay: [125I]RTI-55 binding in HEK-hNET membranes; settings: Table II
T1 construct: expressed in transfected cells; host or cells: HEK cells expressing hNET

hNET [2] = target: T1, hNET; assay: [3H]NE uptake in HEK-hNET cells; type: cell-based; settings: Table II
hSERT [3] = target: T2, hSERT (Homo sapiens, UniProt P31645); assay: [125I]RTI-55 binding in HEK hSERT membranes; settings: Table II; bound given in μM
T2 construct: expressed in transfected cells; host or cells: HEK cells expressing hSERT

hDAT = target: T3, hDAT (Homo sapiens, UniProt Q01959); assay: [3H]DA uptake in HEK hDAT cells; type: cell-based; settings: Table II
T3 construct: expressed in transfected cells; host or cells: HEK-293 cells stably expressing recombinant hDAT

hSERT [4] = target: T2, hSERT; assay: [3H]5HT uptake in HEK-hSERT cells; type: cell-based; settings: Table II; bound given in μM
[5] = target: T4, human dopamine transporter (hDAT) (Homo sapiens, UniProt Q01959); assay: [125I]RTI-55 binding to human dopamine transporter in HEK-293 hDAT membranes; settings: for Hill Coefficient: [125I]RTI-55 binding
T4 construct: expressed in transfected cells; host or cells: HEK-293 cells stably expressing recombinant hDAT
Method: To characterize drug interactions with the human dopamine transporter (hDAT), drugs (approximately 30 nM to 10 μM) were incubated with a membrane preparation from HEK-293 cells stably expressing the recombinant hDAT, [^125I]RTI-55 (34 pM), and buffer in a final volume of 250 μl. Independent assays were conducted 2 to 3 times with duplicate determinations. The Cheng-Prusoff equation was used to convert IC50 values to Ki values.

[6] = read-out: [125I]RTI-55 Binding in HEK-hNET Membranes KI (nM) sem
[7] = read-out: [3H]NE Uptake in HEK-hNET cells IC50 (nM) sem
[8] = bound given in μM, read-out: [125I]RTI-55 Binding in HEK-hNET Membranes KI
[9] = bound given in μM, read-out: [3H]DA Uptake in HEK hDAT cells IC50
[10] = Table II, bound given in μM, read-out: [125I]RTI-55 Binding in HEK hDAT Membranes Ki
[11] = read-out: [3H]DA Uptake in HEK hDAT cells IC50 (nM) sem
[12] = Table 1, [125I]RTI-55 34 pM, HEK-293 hDAT membranes, mean +/- range or s.e.m. of 2 or 3 experiments, read-out: Ki value
[13] = Table 1, HEK-293 hDAT membranes
[14] = Table II, read-out: [125I]RTI-55 Binding in HEK hDAT Membranes Ki (nM) sem
[15] = bound given in μM, read-out: [3H]NE Uptake in HEK-hNET cells IC50

T3 sequence (Q01959 whole entry): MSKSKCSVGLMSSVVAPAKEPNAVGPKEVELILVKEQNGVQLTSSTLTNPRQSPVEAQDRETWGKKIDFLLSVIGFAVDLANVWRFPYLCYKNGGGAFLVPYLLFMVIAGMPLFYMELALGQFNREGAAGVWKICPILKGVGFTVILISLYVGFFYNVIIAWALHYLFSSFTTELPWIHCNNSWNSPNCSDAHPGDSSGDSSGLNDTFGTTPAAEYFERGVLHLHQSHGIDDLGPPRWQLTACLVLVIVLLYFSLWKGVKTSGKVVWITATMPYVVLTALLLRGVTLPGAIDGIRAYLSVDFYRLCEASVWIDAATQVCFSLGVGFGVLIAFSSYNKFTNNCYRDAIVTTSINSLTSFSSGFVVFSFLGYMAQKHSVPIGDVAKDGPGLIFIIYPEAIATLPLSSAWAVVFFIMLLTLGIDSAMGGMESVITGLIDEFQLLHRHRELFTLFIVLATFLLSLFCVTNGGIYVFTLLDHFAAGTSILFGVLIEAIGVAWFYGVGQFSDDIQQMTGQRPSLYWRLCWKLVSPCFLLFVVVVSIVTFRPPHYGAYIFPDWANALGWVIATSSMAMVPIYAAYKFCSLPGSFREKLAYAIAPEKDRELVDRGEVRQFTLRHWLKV
T4 sequence (Q01959 whole entry): as above
T1 sequence (P23975 whole entry): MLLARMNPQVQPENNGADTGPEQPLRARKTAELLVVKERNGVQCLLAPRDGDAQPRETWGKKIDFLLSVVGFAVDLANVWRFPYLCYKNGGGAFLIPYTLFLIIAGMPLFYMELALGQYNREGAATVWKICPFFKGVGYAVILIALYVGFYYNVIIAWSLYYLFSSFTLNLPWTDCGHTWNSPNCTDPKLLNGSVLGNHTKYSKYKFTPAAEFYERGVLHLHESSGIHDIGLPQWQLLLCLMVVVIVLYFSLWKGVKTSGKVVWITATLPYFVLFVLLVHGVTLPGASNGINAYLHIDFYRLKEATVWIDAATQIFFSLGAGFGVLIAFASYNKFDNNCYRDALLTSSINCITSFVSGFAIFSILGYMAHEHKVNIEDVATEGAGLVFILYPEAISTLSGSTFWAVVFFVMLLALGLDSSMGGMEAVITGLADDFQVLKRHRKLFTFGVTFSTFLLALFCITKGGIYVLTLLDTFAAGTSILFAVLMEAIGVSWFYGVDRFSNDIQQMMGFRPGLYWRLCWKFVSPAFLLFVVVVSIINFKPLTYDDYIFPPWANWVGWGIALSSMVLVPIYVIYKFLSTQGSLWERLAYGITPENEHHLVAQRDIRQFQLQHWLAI
T2 sequence (P31645 whole entry): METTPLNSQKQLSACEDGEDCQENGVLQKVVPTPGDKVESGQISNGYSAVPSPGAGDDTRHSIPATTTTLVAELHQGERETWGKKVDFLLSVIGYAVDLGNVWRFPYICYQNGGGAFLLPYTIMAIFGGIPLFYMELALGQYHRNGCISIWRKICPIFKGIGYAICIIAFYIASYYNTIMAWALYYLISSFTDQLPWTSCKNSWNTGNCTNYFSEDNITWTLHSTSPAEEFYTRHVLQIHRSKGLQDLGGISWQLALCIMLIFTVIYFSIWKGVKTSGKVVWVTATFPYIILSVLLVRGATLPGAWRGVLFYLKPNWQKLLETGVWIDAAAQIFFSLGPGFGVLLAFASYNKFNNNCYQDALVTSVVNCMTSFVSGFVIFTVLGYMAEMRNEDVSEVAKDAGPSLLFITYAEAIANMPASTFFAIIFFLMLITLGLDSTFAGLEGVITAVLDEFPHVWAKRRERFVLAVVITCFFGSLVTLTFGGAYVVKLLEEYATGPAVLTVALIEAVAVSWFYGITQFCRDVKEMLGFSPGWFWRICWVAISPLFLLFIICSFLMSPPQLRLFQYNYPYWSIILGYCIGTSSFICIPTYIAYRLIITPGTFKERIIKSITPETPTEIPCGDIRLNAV

Compound	[125I]RTI-55 Binding in HEK-hNET Membranes Hill slope (hNET [1])	Ki (hNET [1]; [6]) [nM]	IC50 (hNET [2]; [7]) [nM]	Ki (hNET [1]; [8]) [nM]	Ki (hSERT [3]) [µM]	IC50 (hDAT; [9]) [µM]	IC50 (hSERT [4]) [µM]	Ki [5, 10] [µM]	IC50 (hDAT; [11]) [µM]	Ki [5, 12] [µM]	Hill Coefficient [5, 13]	[125I]RTI-55 Binding in HEK hDAT Membranes Hill slope ([5]; Table II)	Ki [5, 14] [µM]	IC50 (hNET [2]; [15]) [nM]
c1ccc(CCCN2CCN(CCOC(c3ccccc3)c3ccccc3)CC2)cc1 [GBR-12935, reference compound]	−0.90 ± 0.07	628 ± 59	165 ± 17	–	–	–	–	–	–	–	–	–	–	–
O=C(O)C(/C=C/c1ccccc1)N1CCC(c2ccccc2)CC1 (stereo not shown) [RNH-Z-24]	–	–	204 ± 85	> 10000	> 10	> 10	> 10	> 10	–	–	–	–	–	–
CN(C)C(=O)C(/C=C/c1ccccc1)N1CCC(c2ccccc2)CC1 (stereo not shown) [RNH-Z-28]	–	–	211 ± 65	> 10000	> 10	–	> 10	–	4.04 ± 1.63	3.92 ± 1.25	−2.1 ± 0.6	−2.09 ± 0.60	3.92 ± 1.25	–
O=C(NCc1cccc2ccccc12)C(/C=C/c1ccccc1)N1CCC(c2ccccc2)CC1 (stereo not shown) [RNH-Z-31]	–	–	–	> 10000	> 10	> 10	> 10	–	–	7.73 ± 3.07	−7.0 ± 4.5	−7.00 ± 4.54	7.73 ± 3.07	> 10000
O=C(O)C(/C=C/c1ccccc1)NC1CCc2ccccc21 (stereo not shown) [RNH-Z-39]	−0.96 ± 0.17	2920 ± 1230	–	–	> 10	> 10	> 10	> 10	–	–	–	–	–	> 10000
CN(CCC=C1c2ccccc2CCc2ccccc21)C(/C=C/c1ccccc1)C(=O)O (stereo not shown) [RNH-Z-44]	–	–	–	> 10000	> 10	–	> 10	–	1.82 ± 0.819	3.3 ± 0.855	−2.2 ± 0.9	−2.16 ± −0.89	3.3 ± 0.855	> 10000
O=C(O)C(/C=C/c1ccccc1)N1CCC(O)(c2ccc(Cl)cc2)CC1 (stereo not shown) [RNH-Z-48]	–	–	–	> 10000	> 10	> 10	> 10	> 10	–	–	–	–	–	> 10000
CN(CCCN1c2ccccc2C=Cc2ccccc21)C(/C=C/c1ccccc1)C(=O)O (stereo not shown) [RNH-Z-52]	–	–	–	> 10000	> 10	> 10	> 10	> 10	–	–	–	–	–	> 10000
CC(Cc1cccc(C(F)(F)F)c1)NC(/C=C/c1ccccc1)C(=O)O (stereo not shown) [RNH-Z-58]	–	–	–	> 10000	> 10	> 10	> 10	> 10	–	–	–	–	–	> 10000
O=C(O)C(/C=C/c1ccccc1)C1CCN(CCOC(c2ccccc2)c2ccccc2)CC1 (stereo not shown) [ZHN-92]	–	–	113 ± 15	> 10000	> 10	–	> 10	–	2.01 ± 0.428	3.71 ± 1.25	−1.2 ± 0.2	−1.15 0.15	–	–
O=C(O)C(/C=C/c1ccccc1)C1CCN(CCOC(c2ccc(F)cc2)c2ccc(F)cc2)CC1 (stereo not shown) [ZHN-93]	−1.78 ± 0.65	4540 ± 1540	117 ± 20	–	> 10	–	> 10	–	0.182 ± 0.059	0.727 ± 0.291	−1.0 ± 0.3	−1.02 ± 0.30	0.727 ± 0.291	–
O=C(O)C(/C=C/c1ccccc1)N1CCN(CCOC(c2ccccc2)c2ccccc2)CC1 (stereo not shown) [ZHN-94]	–	–	2200 ± 470	> 10000	> 10	–	> 10	–	0.385 ± 0.111	2.78 ± 1.25	−0.8 ± 0.2	−0.78 ± 0.17	2.78 ± 1.25	–
